Laboratory results as given in paper PMC5940854, “Nitrothiophene carboxamides, a novel narrow spectrum antibacterial series: Mechanism of action and Efficacy” (Scientific Reports, 2018).

Columns and labels:
ATCC25922 = assay: MIC on E. coli ATCC25922; type: cell-based; settings: strain ATCC25922
Method: The inoculum used for all the experiments is derived from a single seed lot that is maintained as glycerol stocks at −80 °C and are sub cultured on LB plate for isolated colonies. Single colony of each strain is grown in M9 medium. All test compound stocks and dilutions are prepared in DMSO. Serial two-fold dilutions of compounds are prepared separately, with the concentrations ranging from 2 mg/mL to 0.015 mg/mL. To 150 µl (3–7 × 10^5 CFU/ml) of bacterial culture in 96 well microtitre plates, 3 μL compound from each of the dilutions is added to respective wells to obtain final concentrations ranging from 40 µg/mL to 0.3 µg/mL of the test compounds. Media control, culture control and appropriate reference drug controls are included. […] Growth is monitored by checking absorbance at 600 nm (A600). […] The samples from MIC and above concentrations are plated for MBC (Minimum Bactericidal Concentration). The samples are diluted 1:10 and plated on LB agar plates. […] The killing kinetics is determined by enumerating survivors at various time points following compound exposure. E. coli cells (~10^7 CFU/ml; A600 of 0.1) are treated with various concentrations (40 µg/mL to 0.3 µg/mL) of compounds in a 96-well microtitre plate. At various time intervals (0 to 8 h), 30 μl volumes of treated cultures are serially diluted and plated on LB agar plates. […] Data is expressed as the log10 CFU for each drug treatment.

[1] = system: E. coli clinical isolates; assay: MIC on panel of E. coli clinical isolates; type: cell-based; settings: for MIC50 / MIC90: Escherichia coli; for MIC50: 50% clinical isolates; for MIC90: 90% clinical isolates

CNC(C)C1CCC(N)C(OC2C(N)CC(N)C(OC3OCC(C)(O)C(NC)C3O)C2O)O1 (centres unmarked) [gentamicin, reference compound]
2 µg/mL: MIC (ATCC25922) | MIC ([1]; strain SEC020) | MIC ([1]; strain SEC026) | MIC ([1]; strain SEC028) | MIC ([1]; strain SEC034) | MIC ([1]; strain SEC039) | MIC ([1]; strain SEC051) | MIC ([1]; strain SEC052) | MIC ([1]; strain SEC055) | MIC ([1]; strain SEC059)
0.5 µg/mL: MIC ([1]; strain SEC018) | MIC ([1]; strain SEC063)
4 µg/mL: MIC ([1]; strain SEC002) | MIC ([1]; strain SEC004) | MIC ([1]; strain SEC006) | MIC ([1]; strain SEC012) | MIC ([1]; strain SEC016) | MIC ([1]; strain SEC023) | MIC ([1]; strain SEC029) | MIC ([1]; strain SEC032) | MIC ([1]; strain SEC036) | MIC ([1]; strain SEC037) | MIC ([1]; strain SEC038) | MIC ([1]; strain SEC041) | MIC ([1]; strain SEC045) | MIC ([1]; strain SEC046) | MIC ([1]; strain SEC048) | MIC ([1]; strain SEC049) | MIC ([1]; strain SEC057) | MIC ([1]; strain SEC058) | MIC ([1]; strain SEC067) | MIC ([1]; strain SEC076) | MIC ([1]; strain SEC080)
32 µg/mL: MIC ([1]; strain SEC040) | MIC ([1]; strain SEC060) | MIC ([1]; strain SEC071)
8 µg/mL: MIC ([1]; strain SEC054) | MIC ([1]; strain SEC062)
16 µg/mL: MIC50 ([1]; 75 E.coli clinical isolates) | MIC ([1]; strain SEC077)
> 64 µg/mL: MIC90 ([1]; 75 E.coli clinical isolates) | MIC ([1]; strain SEC001) | MIC ([1]; strain SEC003) | MIC ([1]; strain SEC005) | MIC ([1]; strain SEC007) | MIC ([1]; strain SEC008) | MIC ([1]; strain SEC011) | MIC ([1]; strain SEC013) | MIC ([1]; strain SEC014) | MIC ([1]; strain SEC015) | MIC ([1]; strain SEC017) | MIC ([1]; strain SEC019) | MIC ([1]; strain SEC021) | MIC ([1]; strain SEC022) | MIC ([1]; strain SEC024) | MIC ([1]; strain SEC025) | MIC ([1]; strain SEC031) | MIC ([1]; strain SEC033) | MIC ([1]; strain SEC035) | MIC ([1]; strain SEC042) | MIC ([1]; strain SEC043) | MIC ([1]; strain SEC044) | MIC ([1]; strain SEC047) | MIC ([1]; strain SEC050) | MIC ([1]; strain SEC053) | MIC ([1]; strain SEC061) | MIC ([1]; strain SEC064) | MIC ([1]; strain SEC065) | MIC ([1]; strain SEC068) | MIC ([1]; strain SEC069) | MIC ([1]; strain SEC070) | MIC ([1]; strain SEC072) | MIC ([1]; strain SEC073) | MIC ([1]; strain SEC074) | MIC ([1]; strain SEC075) | MIC ([1]; strain SEC078) | MIC ([1]; strain SEC079)

C[C@@H](O)[C@H]1C(=O)N2C(C(=O)O)=C(S[C@@H]3CN[C@H](C(=O)N(C)C)C3)[C@H](C)[C@H]12 [meropenem, reference compound]
1 µg/mL: MIC ([1]; strain SEC052) | MIC ([1]; strain SEC053)
0.13 µg/mL: MIC ([1]; strain SEC002) | MIC ([1]; strain SEC008) | MIC ([1]; strain SEC026) | MIC ([1]; strain SEC044) | MIC ([1]; strain SEC057) | MIC ([1]; strain SEC073) | MIC ([1]; strain SEC075)
> 4 µg/mL: MIC ([1]; strain SEC001) | MIC ([1]; strain SEC003) | MIC ([1]; strain SEC004) | MIC ([1]; strain SEC015) | MIC ([1]; strain SEC020) | MIC ([1]; strain SEC041) | MIC ([1]; strain SEC063) | MIC ([1]; strain SEC068) | MIC ([1]; strain SEC078)
0.03 to 8 µg/mL: MIC Range ([1]; 75 E.coli clinical isolates)
0.03 µg/mL: MIC ([1]; strain SEC006) | MIC ([1]; strain SEC007) | MIC ([1]; strain SEC016) | MIC ([1]; strain SEC021) | MIC ([1]; strain SEC022) | MIC ([1]; strain SEC028) | MIC ([1]; strain SEC032) | MIC ([1]; strain SEC033) | MIC ([1]; strain SEC034) | MIC ([1]; strain SEC037) | MIC ([1]; strain SEC039) | MIC ([1]; strain SEC046) | MIC ([1]; strain SEC050) | MIC ([1]; strain SEC051) | MIC ([1]; strain SEC054) | MIC ([1]; strain SEC061) | MIC ([1]; strain SEC062) | MIC ([1]; strain SEC065) | MIC ([1]; strain SEC070) | MIC ([1]; strain SEC071) | MIC ([1]; strain SEC080)
0.06 µg/mL: MIC (ATCC25922) | MIC50 ([1]; 75 E.coli clinical isolates) | MIC ([1]; strain SEC005) | MIC ([1]; strain SEC011) | MIC ([1]; strain SEC012) | MIC ([1]; strain SEC013) | MIC ([1]; strain SEC014) | MIC ([1]; strain SEC017) | MIC ([1]; strain SEC018) | MIC ([1]; strain SEC019) | MIC ([1]; strain SEC029) | MIC ([1]; strain SEC031) | MIC ([1]; strain SEC036) | MIC ([1]; strain SEC038) | MIC ([1]; strain SEC040) | MIC ([1]; strain SEC043) | MIC ([1]; strain SEC045) | MIC ([1]; strain SEC047) | MIC ([1]; strain SEC055) | MIC ([1]; strain SEC058) | MIC ([1]; strain SEC059) | MIC ([1]; strain SEC060) | MIC ([1]; strain SEC064) | MIC ([1]; strain SEC067) | MIC ([1]; strain SEC072) | MIC ([1]; strain SEC074) | MIC ([1]; strain SEC076) | MIC ([1]; strain SEC079)
0.25 µg/mL: MIC ([1]; strain SEC023) | MIC ([1]; strain SEC024) | MIC ([1]; strain SEC025) | MIC ([1]; strain SEC048)
0.5 µg/mL: MIC ([1]; strain SEC035) | MIC ([1]; strain SEC049) | MIC ([1]; strain SEC077)
8 µg/mL: MIC90 ([1]; 75 E.coli clinical isolates)
2 µg/mL: MIC ([1]; strain SEC042) | MIC ([1]; strain SEC069)
